Measured values published in patent US9446007B2, “Methods for maintaining or improving health, well-being and/or a physiological function in a subject” (DYNAMIS THERAPEUTICS, INC., priority 2012, dated 2016).

Assays:
[1] = Effects of meglumine in a human subject (Example 5); type: in vivo; settings: person, 500-1,500 mg orally daily over 5 years
Procedure: A person suffering from right knee joint pain, and otherwise in good health, was orally administered 500-1,500 mg of meglumine hydrochloride on a daily basis over the period of 5 years (with two months off).

[2] = Effects of meglumine in a human subject (Example 9); type: in vivo; settings: orally daily, 7 months
Description: A person suffering from high blood sugar was orally administered meglumine hydrochloride on a daily basis over the period of 7 months.

albumin/creatinine ratio = assay: Urinary albumin/creatinine; type: in vivo, KK.Cg-A^y/+/J and KK.Cg-A^+/+/J mice; settings: 18 mM in drinking water, 12 weeks, not significant
Procedure: Urinary creatinine and albumin levels were measured in KK.Cg-A^y/+/J “mutant” diabetic mice and KK.Cg-A^+/+/J “control” mice treated with or without 18 mM meglumine hydrochloride in the drinking water for 12 weeks.

[3] = Effects of meglumine in a human subject (Example 8); type: in vivo; settings: overweight person, 500-1,500 mg orally daily, 14 months
Procedure: A person was overweight and suffering from fatty liver, experienced sore joints, lacked energy and required extended recovery time after exercise & travel, was orally administered 500-1,500 mg of meglumine hydrochloride on a daily basis over the period of 14 months.

[4] = Effects of meglumine in a human subject (Example 10); type: in vivo; settings: person
Procedure: A person, suffering from scleroderma and type 2 diabetes, overweight and with difficulty to lose through dieting and exercise, experiencing less energy than when younger, was administered meglumine hydrochloride (500 mg to 2000 mg) orally almost every day over 5 years.

[5] = Effects of meglumine in a human subject (Example 6); type: in vivo; settings: orally daily, one month
Description: A person suffering from high blood pleasure was orally administered meglumine hydrochloride on a daily basis over the period of one month.

[6] = Effects of meglumine in a human subject (Example 11): blood lipids, lipoproteins, inflammation markers; type: in vivo; settings: person, type 2 diabetes, 3×500 mg orally, with metformin
Procedure: A person, suffering from type 2 diabetes, overweight (height of 5 feet 1 inch, and weight of 129 pounds, as of month 0) and with difficulty to lose weight through dieting and exercise, was administered meglumine hydrochloride (3×500 mg) orally over the period of 8 months. Over the duration of the study the subject was also administered metformin orally to manage their type 2 diabetes. The subject's blood was analyzed for lipids, lipoprotein particles and apolipoproteins, and inflammation/oxidation markers.

[7] = Effects of meglumine in a human subject (Example 7); type: in vivo; settings: person on a blood thinner; orally daily, 1 month
Description: A person on a blood thinner medication was orally administered meglumine hydrochloride on a daily basis over the period of 1 month.

triglyceride = assay: Serum triglyceride levels; type: in vivo, KK.Cg-A^y/+/J diabetic mice; settings: 18 mM in drinking water for 32 weeks; n=9; control 752.21±201.29; p<0.001
Procedure: Serum triglyceride levels were measured in KK.Cg-A^y/+/J diabetic mice treated with 18 mM meglumine hydrochloride in the drinking water for 32 weeks. […] A t-test was used to compare the mean values and a p<0.001 was calculated, indicating the decrease in plasma triglycerides in the meglumine treated mice is statistically significant.

[8] = 500 mg to 2000 mg orally over 5 years

SMILES: CNC[C@H](O)[C@@H](O)[C@H](O)[C@H](O)CO.Cl [meglumine hydrochloride]
- body weight [1]: overall weight loss/control effect
- increase in arm diameter [1]: 1 inch
- mental capacity [1]: increased mental capacity
- muscle-to-fat index [1]: increase in muscle-to-fat index
- sexual stamina and sexual performance [1]: improved sexual stamina and sexual performance
- skin condition [1]: improved
- vitality or energy levels [1]: improved vitality or energy levels
- military press weights ([1]; from 200 lb): 355 lb
- blood glucose level ([2]; person with high blood sugar, decrease from 202): 75 mg/dL
- weight loss ([2]; person with high blood sugar, without regain): 25 pounds
- mental capacity ([2]; person): increased mental capacity
- nail and hair health ([2]; person): improvement in nail and hair health
- sexual stamina and sexual performance ([2]; person): dramatically improved sexual stamina and sexual performance
- skin condition ([2]; person): improved
- vitality or energy levels ([2]; person): improved vitality or energy levels
- urinary albumin/creatinine ratio (albumin/creatinine ratio; KK.Cg-A^+/+/J control mice, without meglumine 2.5±1.2): 1.6±1.8
- urinary albumin/creatinine ratio (albumin/creatinine ratio; KK.Cg-A^y/+/J mutant diabetic mice, without meglumine 17.3±15.4): 12.4±8.7
- mental capacity [3]: increased mental capacity
- muscle strength [3]: improved muscle strength
- nail and hair health [3]: improvement in nail and hair health
- sexual stamina and sexual performance [3]: improved sexual stamina and sexual performance
- skin condition [3]: improved
- vitality or energy levels [3]: improved vitality or energy levels
- weight lost per month [3]: approximately 0.5 kg
- body weight on average ([3]; from 108 kg): 102 kg
- weight lost ([4]; scleroderma and type 2 diabetes, 500 mg to 2000 mg orally almost every day, first two and one half years): over 30 pounds
- insulin and creatine/albumin levels ([4]; type 2 diabetes, 500 mg to 2000 mg orally over 5 years): normal
- blood glucose level ([4]; type 2 diabetes, minimum dose of 500 mg three times a day): improved
- HDL levels ([4]; 500 mg to 2000 mg orally): stayed the same
- Lp-PLA level ([4]; 500 mg to 2000 mg orally): went down
- fibrinogen homocysteine levels ([4]; 500 mg to 2000 mg orally): stayed the same
- eye sight [4, 8]: improved
- mental capacity [4, 8]: has not deteriorated
- overall energy levels [4, 8]: increased
- overall skin tone and texture [4, 8]: improved
- CRP level ([4]; 500 mg to 2000 mg orally, from 0.58): < 0.3
- LDL level ([4]; 500 mg to 2000 mg orally, from 209, within the last 16 months): 160 mg/dL
- cholesterol levels ([4]; 500 mg to 2000 mg orally, from 300, without diet change or any medicines): 265 mg/dL
- blood pressure ([5]; person with high blood pressure, reduced from 220/110): around 130/78
- sleep and energy ([5]; person): better sleep and felt more energetic
- body weight ([5]; person, at least one dress size): weight loss
- Apo B:Apo A-I ratio (calculated) ([6]; month 8 (month 0: 0.73)): 0.45
- Lp(a) mass ([6]; month 8 (month 0: 5)): 6 mg/dL
- HDL2-C ([6]; month 8 (month 0: 19)): 22 mg/dL
- % sdLDL-C (calculated) ([6]; month 8 (month 0: 35)): 25%
- HDL-P ([6]; month 8 (month 0: 44.3)): 43.7 μmol-L
- sdLDL-C ([6]; month 8 (month 0: 56)): 28 mg/dL
- Lipids: HDL-C ([6]; month 8 (month 0: 69)): 71 mg/dL
- Apo B ([6]; month 8 (month 0: 133)): 79 mg/dL
- Lipids: triglycerides ([6]; month 8 (month 0: 135)): 82 mg/dL
- Lp-PLA2 ([6]; month 8 (month 0: 152)): 172 ng/mL
- Lipids: LDL-C direct ([6]; month 8 (month 0: 160)): 111 mg/dL
- Apo A-I ([6]; month 8 (month 0: 183)): 176 mg/dL
- Lipids: non-HDL-C (calculated) ([6]; month 8 (month 0: 196)): 134 mg/dL
- Lipids: total cholesterol ([6]; month 8 (month 0: 265)): 205 mg/dL
- fibrinogen ([6]; month 8 (month 0: 332)): 334 mg/dL
- LDL-P ([6]; month 8 (month 0: 2,250)): 1,529 nmol/L
- hs-CRP ([6]; month 8 (month 0: <0.3)): 0.3 mg/L
- need for blood thinner medication [7]: able to discontinue the use of the blood thinner
- serum triglyceride levels (triglyceride): 322.66 ± 158.85 mg/dL
